Tested on: AMPA receptors
Test: AMPA ES cell FLIPR screen (AMPA Potentiator Assay)
Format: cell-based
Details: murine ES cell-derived neurons, FLIPR Fluo-4 calcium signal, 32 uM AMPA challenge; values marked * are the geometric mean of 2-9 EC50 determinations
Protocol: The murine ES cell line used was E14-Sx1-16C, which has a targeted mutation in the Sox1 gene, a neuroectodermal marker, that offers G418 resistance when the Sox1 gene is expressed (Stem Cell Sciences). ES cells were maintained undifferentiated as previously described (Roach). […] ES cells were plated on gelatin-coated dishes (BD Biosciences), the media was changed daily and the cells were dissociated with 0.05% Trypsin EDTA (Invitrogen) every other day.
Embryoid Body Formation: Prior to embryoid body (EB) formation the ES cells were weaned from FBS onto Knockout Serum Replacement (KSR) (Invitrogen). To form EBs, ES cells were dissociated into a single cell suspension, then 3×10^6 cells were plated in bacteriology dishes (Nunc 4014) and grown as a suspension culture in NeuroEB-I medium that consisted of Knockout™ D-MEM (Invitrogen), supplemented with 10% KSR (Invitrogen), 0.2 mM L-Glutamine (Invitrogen), 0.1 mM MEM non-essential amino acids (Invitrogen), 30 μg/ml Gentamicin (Invitrogen), 1000 u/ml ESGRO (Chemicon), 0.1 mM 2-Mercaptoethanl (Sigma) and 150 ng/ml Transferrin (Invitrogen). The plates were put on a Stovall Belly Button shaker in an atmospheric oxygen incubator. The media was changed on day 2 of EB formation with NeuroEB-I and on day 4 with NeuroEB-II (NeuroEB-I plus 1 μg/ml mNoggin [R&D Systems]).
Neuronal Precursor Selection and Expansion: On day 5 of EB formation, EBs were dissociated with 0.05% Trypsin EDTA, and 4×10^6cells/100 mm dish were plated on Laminin coated tissue culture dishes in Neuroll-G418 medium that consisted of a base medium of a 1:1 mixture of D-MEM/F12 supplemented with N2 supplements and NeuroBasal Medium supplemented with B27 supplement and 0.1 mM L-Glutamine (all from Invitrogen). The base medium was then supplemented with 10 ng/ml bFGF (Invitrogen), 1 μg/ml mNoggin, 500 ng/ml SHH—N, 100 ng/ml FGF-8b (R&D Systems), 1 μg/ml Laminin and 200 μg/ml G418 (Invitrogen) for selection of neuronal precursors expressing Sox-1. The plates were put in an incubator that contained 2% Oxygen and were maintained in these conditions. During the 6-day selection period, the Neuroll media was changed daily. On day 6, the surviving neuronal precursor foci were dissociated with 0.05% Trypsin EDTA and the cells were plated at a density of 1.5×10^6 cells/100 mm Laminin coated dish in Neuroll-G418 medium. The cells were dissociated every other day for expansion, and prepared for Cryopreservation at passage 3 or 4. The crypreservation medium contained 50% KSR, 10% Dimethyl Sulfoxide (DMSO) (Sigma) and 40% Neurol-G418I medium. Neuronal precursors were crypreserved at a concentration of 4×10^6 cells/ml and 1 ml/cryovial in a controlled rate freezer overnight then transferred to an ultra-low freezer or liquid nitrogen for long-term storage.
Neuronal Differentiation: Cryopreserved ES cell-derived neuronal precursors were thawed by the rapid thaw method in a 37-degree water-bath. The cells were transferred from the cryovial to a 100 mm Laminin coated tissue culture dish that already contained Neuroll-G418 that had been equilibrated in a 2% Oxygen incubator. The media was changed with fresh Neuroll-G418 the next day. The cells were dissociated every other day as described above for expansion to generate enough cells to plate for the screen. For the screen, the cells were plated into 384-well poly-d-lysine coated tissue culture dishes (BD Biosciences) by the automated SelecT at a cell density of 6K cells/well in differentiation medium Neurolll that contained a 4:1 ratio of the NeuroBasalMedium/B27:D-MEM/F12/N2 supplemented with 1 μM cAMP (Sigma), 200 μM Ascorbic Acid (Sigma), 1 μg/ml Laminin (Invitrogen) and 10 ng/ml BDNF (R&D Systems). The plates were put in an incubator with 2% Oxygen and allowed to complete the differentiation process for 7 days. The cells could then be used over a 5-day period for the high throughput screen.
On the day of the assay, the FLIPR assay may be performed using the following methods: […]

Row | Compound | EC50 [nM]
1 | CC(C)S(=O)(=O)N[C@@H]1COCC[C@H]1c1ccc(-c2ccc(C#N)s2)cc1 [Example 19, N-{(3S,4S)-4-[4-(5-cyano-2-thienyl)phenyl]tetrahydro-2H-pyran-3-yl}propane-2-sulfonamide] | > 31600
2 | CC(C)S(=O)(=O)N[C@H]1COCC[C@@H]1c1ccc(-c2ccc(C#N)s2)cc1 [Example 20, N-{(3R,4R)-4-[4-(5-cyano-2-thienyl)phenyl]tetrahydro-2H-pyran-3-yl}propane-2-sulfonamide] | 9790
3 | CC(C)S(=O)(=O)N[C@@H]1CCOC[C@@H]1c1ccc(-c2ccc(C#N)s2)cc1 [Example 21, N-{(3R,4R)-3-[4-(5-cyano-2-thienyl)phenyl]tetrahydro-2H-pyran-4-yl}propane-2-sulfonamide] | > 31600
4 | CC(C)S(=O)(=O)N[C@@H]1CCOC[C@@H]1c1ccc(-c2ccccc2C#N)cc1 [Example 23, N-[(3R,4R)-3-(2′-cyanobiphenyl-4-yl)tetrahydro-2H-pyran-4-yl]propane-2-sulfonamide] | 10300
5 | CC(C)S(=O)(=O)N[C@@H]1CCOC[C@@H]1c1ccc(-c2ccccc2)cc1 [Example 26, N-[(3R,4R)-3-biphenyl-4-yltetrahydro-2H-pyran-4-yl]propane-2-sulfonamide] | > 31600
6 | CCOc1ccccc1-c1ccc([C@H]2COCC[C@H]2NS(=O)(=O)C(C)C)cc1 [Example 28, N-[(3R,4R)-3-(2′-ethoxybiphenyl-4-yl)tetrahydro-2H-pyran-4-yl]propane-2-sulfonamide] | > 31600
7 | CC(C)S(=O)(=O)N[C@H]1CCOC[C@H]1c1ccc(-c2ccc(C#N)cc2)cc1 [Example 29, N-[(3S,4S)-3-(4′-cyanobiphenyl-4-yl)tetrahydro-2H-pyran-4-yl]propane-2-sulfonamide] | 4040
8 | CC(C)S(=O)(=O)N[C@@H]1CCOC[C@@H]1c1ccc(-c2ccc(C#N)cc2)cc1 [Example 30, N-[(3R,4R)-3-(4′-cyanobiphenyl-4-yl)tetrahydro-2H-pyran-4-yl]propane-2-sulfonamide] | > 31600
9 | CC(C)S(=O)(=O)N[C@@H]1CCOC[C@H]1c1ccc(-c2ccccc2C#N)cc1 [Example 32, N-[(3S,4R)-3-(2′-cyanobiphenyl-4-yl)tetrahydro-2H-pyran-4-yl]propane-2-sulfonamide] | > 26600
10 | CC(C)S(=O)(=O)N[C@@H]1CCOC[C@H]1c1ccc(-c2ccccc2)cc1 [Example 33, N-[(3S,4R)-3-biphenyl-4-yltetrahydro-2H-pyran-4-yl]propane-2-sulfonamide] | > 31600
11 | CCOc1ccccc1-c1ccc([C@@H]2COCC[C@H]2NS(=O)(=O)C(C)C)cc1 [Example 35, N-[(3S,4R)-3-(2′-ethoxybiphenyl-4-yl)tetrahydro-2H-pyran-4-yl]propane-2-sulfonamide] | 4570
12 | CC(C)S(=O)(=O)N[C@H]1CCOC[C@@H]1c1ccc(-c2cccnc2)cc1 [Example 36, N-[(3R,4S)-3-(4-pyridin-3-ylphenyl)tetrahydro-2H-pyran-4-yl]propane-2-sulfonamide] | > 31600
13 | CC(C)S(=O)(=O)N[C@@H]1CCOC[C@H]1c1ccc(-c2cccnc2)cc1 [Example 37, N-[(3S,4R)-3-(4-pyridin-3-ylphenyl)tetrahydro-2H-pyran-4-yl]propane-2-sulfonamide] | > 4670
14 | CC(C)S(=O)(=O)N[C@H]1CCOC[C@@H]1c1ccc(-c2ccc(C#N)cc2)cc1 [Example 38, N-[(3R,4S)-3-(4′-cyanobiphenyl-4-yl)tetrahydro-2H-pyran-4-yl]propane-2-sulfonamide] | 1040
15 | CC(C)S(=O)(=O)N[C@@H]1CCOC[C@H]1c1ccc(-c2ccc(C#N)cc2)cc1 [Example 39, N-[(3S,4R)-3-(4′-cyanobiphenyl-4-yl)tetrahydro-2H-pyran-4-yl]propane-2-sulfonamide] | > 31600
16 | CC(C)S(=O)(=O)N[C@H]1CCOC[C@@H]1c1ccc(-c2ccc(C#N)s2)cc1 [Example 41, N-{(3R,4S)-3-[4-(5-cyano-2-thienyl)phenyl]tetrahydro-2H-pyran-4-yl}propane-2-sulfonamide] | 826
17 | CC(C)S(=O)(=O)N[C@@H]1CCOC[C@H]1c1ccc(-c2ccc(C#N)s2)cc1 [Example 42, N-{(3S,4R)-3-[4-(5-cyano-2-thienyl)phenyl]tetrahydro-2H-pyran-4-yl}propane-2-sulfonamide] | > 31600
18 | CC(C)S(=O)(=O)N[C@@H]1CCCO[C@H]1c1ccc(-c2ccccc2)cc1 [Example 43, N-[(2S,3R)-2-biphenyl-4-yltetrahydro-2H-pyran-3-yl]propane-2-sulfonamide] | > 31600
19 | CCOc1ccccc1-c1ccc([C@@H]2OCCC[C@H]2NS(=O)(=O)C(C)C)cc1 [Example 45, N-[(2S,3R)-2-(2′-ethoxybiphenyl-4-yl)tetrahydro-2H-pyran-3-yl]propane-2-sulfonamide] | > 9610
20 | CC(C)S(=O)(=O)N[C@H]1CCCO[C@@H]1c1ccc(-c2ccccc2C#N)cc1 [Example 46, N-[(2R,3S)-2-(2′-cyanobiphenyl-4-yl)tetrahydro-2H-pyran-3-yl]propane-2-sulfonamide] | 1240

Compounds with a lower EC50, results first:

Row | EC50 [nM] | Compound
21 | 415 | CC(C)S(=O)(=O)N[C@H]1COCC[C@@H]1c1ccc(-c2ccccc2C#N)cc1 [Example 18, N-[(3R,4R)-4-(2′-cyanobiphenyl-4-yl)tetrahydro-2H-pyran-3-yl]propane-2-sulfonamide]
22 | 429 | CC(C)S(=O)(=O)N[C@H]1CCOC[C@H]1c1ccc(-c2ccccc2C#N)cc1 [Example 22, N-[(3S,4S)-3-(2′-cyanobiphenyl-4-yl)tetrahydro-2H-pyran-4-yl]propane-2-sulfonamide]
23 | 378 | CC(C)S(=O)(=O)N[C@H]1CCOC[C@H]1c1ccc(-c2ccc(F)cc2C#N)cc1 [Example 24, N-[(3S,4S)-3-(2′-cyano-4′-fluorobiphenyl-4-yl)tetrahydro-2H-pyran-4-yl]propane-2-sulfonamide]
24 | 684 | CC(C)S(=O)(=O)N[C@H]1CCOC[C@H]1c1ccc(-c2ccccc2)cc1 [Example 25, N-[(3S,4S)-3-biphenyl-4-yltetrahydro-2H-pyran-4-yl]propane-2-sulfonamide]
25 | 320 | CCOc1ccccc1-c1ccc([C@@H]2COCC[C@@H]2NS(=O)(=O)C(C)C)cc1 [Example 27, N-[(3S,4S)-3-(2′-ethoxybiphenyl-4-yl)tetrahydro-2H-pyran-4-yl]propane-2-sulfonamide]
26 | 318 | CC(C)S(=O)(=O)N[C@H]1CCOC[C@@H]1c1ccc(-c2ccccc2C#N)cc1 [Example 31, N-[(3R,4S)-3-(2′-cyanobiphenyl-4-yl)tetrahydro-2H-pyran-4-yl]propane-2-sulfonamide]
27 | 220 | CCOc1ccccc1-c1ccc([C@H]2COCC[C@@H]2NS(=O)(=O)C(C)C)cc1 [Example 34, N-[(3R,4S)-3-(2′-ethoxybiphenyl-4-yl)tetrahydro-2H-pyran-4-yl]propane-2-sulfonamide]
28 | 255 | CC(C)S(=O)(=O)N[C@H]1CCOC[C@@H]1c1ccc(-c2ccc(F)cc2C#N)cc1 [Example 40, N-[(3R,4S)-3-(2′-cyano-4′-fluorobiphenyl-4-yl)tetrahydro-2H-pyran-4-yl]propane-2-sulfonamide]
29 | 493 | CCOc1ccccc1-c1ccc([C@H]2OCCC[C@@H]2NS(=O)(=O)C(C)C)cc1 [Example 44, N-[(2R,3S)-2-(2′-ethoxybiphenyl-4-yl)tetrahydro-2H-pyran-3-yl]propane-2-sulfonamide]

Reference: US20110172297A1, “Oxopiperdinyl And Pyranyl Sulfonamides and Pharmaceutical Compositions Thereof” (Pfizer Inc, priority 2008, published 2011)
